The values that follow come from patent US6573248B2, “Monocyclic L-nucleosides, analogs and uses thereof” (ICN Pharmaceuticals, Inc., priority 1996, dated 2003).

A word on the melting point: it is the temperature, or range, at which the solid turns liquid. Take `NC(=O)c1ncn([C@H]2O[C@@H](CO)[C@H](O)[C@@H]2O)c1C(N)=O` [Compound 48, 1-β-L-Ribofuranosylimidazole-4,5-dicarboxamide]: the melting point lay in the range of 224 to 226 °C.
`NC(=O)c1cn([C@H]2O[C@@H](CO)[C@H](O)[C@@H]2O)ccc1=O` [Compound 34, 1-β-L-ribofuranosylpyridine-4-one-3-carboxamide] came in with a melting point of 209 to 211 °C.
In turn, `Cc1cc(=O)[nH]c(=O)n1[C@H]1O[C@@H](CO)[C@H](O)[C@@H]1O` [Compound 41, 1-β-L-Ribofuranosyl-6-methyluracil] had a melting point of 175 to 177 °C.
As for `NC(=O)c1nc([C@H]2O[C@@H](CO)[C@H](O)[C@@H]2O)n[nH]1` [Compound 68, 3-β-L-Ribofuranosyl-1,2,4-triazole-5-carboxamide], the melting point lay within 193 to 195 °C.
`NC(=O)c1nn([C@H]2O[C@@H](CO)[C@H](O)[C@@H]2O)nc1C(N)=O` [Compound 32, 2-β-L-Ribofuranosyl-1,2,3-triazole-4,5-dicarboxamide] registered a melting point of 210 to 212 °C.
